Laboratory results: PMC8044192 (Scientific Reports, 2021)

Experiments:
[1] = Plasma analytes in DIO mice (active GLP-1, GIP, insulin, metabolic markers); assay type: in vivo, C57BL/6J mice; conditions: study 1, linagliptin 3 mg/kg/day s.c., 4 h post-dosing
Experimental: Terminal cardiac blood samples were collected in EDTA-coated tubes with (for GLP-1 and GIP analysis) or without (for DPP-IV enzyme analysis) 10 µl DPP-IV inhibitor/ml blood (Millipore, Copenhagen, Denmark) prior to sampling. Plasma was separated by centrifugation (3000 × g for 10 min at 4 °C) and immediately frozen on dry ice and stored at − 80 °C until further analysis. DPP-IV enzyme catalytic activity was determined as reported previously. Active GLP-1 and GIP levels were assessed by ELISA (#K150JWC, MesoScale Discovery, Rockville, MD; #27702, IBL, Fujioka, Japan) according to the manufacturer’s instructions. Plasma levels of insulin were measured by ELISA (#K152BZC, MesoScale Discovery, Rockville, MD), according to the manufacturer’s instructions.

[2] = Study 1: body weight and food intake in DIO mice, linagliptin monotreatment for 14 days; assay type: in vivo, C57BL/6J mice; conditions: linagliptin 3 mg/kg/day s.c.
Experimental: (§1) The Danish Animal Experiments Inspectorate approved all experiments which were conducted using internationally accepted principles for the use of laboratory animals (license #2013-15-2934-00784). The study was carried out in compliance with the ARRIVE guidelines. 99 C57BL/6J mice were from Janvier Labs (Le Genest Saint Isle, France) and housed in a controlled environment (12 h light/dark cycle, lights on at 3 AM, 21 ± 2 °C, humidity 50 ± 10%). Each animal was identified by an implantable subcutaneous microchip (PetID Microchip, E-vet, Haderslev, Denmark). Mice arrived at 5 weeks of age and were made diet-induced obese (DIO) by offering ad libitum access to tap water and high-fat diet (5.15 kcal/g; 60 kcal-% fat, 20 kcal-% carbohydrate, 20% kcal-% protein; D12492, Ssniff, Soest, Germany) for 26–27 weeks before study start. The mice were kept on the diet throughout the study.
(§2) DIO mice were randomized into individual treatment groups (n = 9–10 per group) based on body weight measured 3 days prior to initiation of drug treatment. Vehicle was phosphate-buffered saline added 5% mannitol. […] All drugs were administered once daily at 1 h before lights off. The first dose was given on day 0. Body weight and food intake was monitored daily during the treatment period.

[3] = Study 2: body weight and food intake in DIO mice, 14 days of treatment then 6 days of wash-out; assay type: in vivo, C57BL/6J mice; conditions: linagliptin 3 mg/kg or Y2R agonist 3 or 30 nmol/kg s.c. once daily for 14 days
Experimental: as §1, §2

[4] = Linagliptin exposure in plasma by LC-MS/MS; assay type: in vivo, C57BL/6J mice; conditions: DIO mice, 3 mg/kg/day s.c. once daily, day 14, before (approx. 24 h after previous dose) and 4 h after last dose
[5] = Oral glucose tolerance test in DIO mice; assay type: in vivo, C57BL/6J mice; conditions: study 2; treatment day 12; 4 h fast; 2 g/kg oral glucose; blood glucose 0–240 min; compared to vehicle dosing
Experimental: In study 2, an oral glucose tolerance test (OGTT) was performed one week prior to treatment start (day -7) and on treatment day 12. Animals were fasted for 4 h prior to OGTT. At t = 0 an oral glucose load (2 g/kg glucose; 200 mg/mL, Fresenius Kabi, Sweden) was administered via a gastrically placed tube. Blood samples for measuring blood glucose were collected from the tail vein at t = 0, 15, 30, 60, 120, 180, 240 min. A pre-OGTT blood sample was collected at − 60 min (OGTT on day − 7) and − 240 min (OGTT on treatment day 12). Glucose area under the curve (AUC) calculations were determined as total AUC from the sampling period of 0 to 240 min.

[6] = biological target: T1, DPP-IV (Homo sapiens, UniProt P27487); assay: Degradation of synthetic NPY1–36 and PYY1–36 in human plasma (control samples); assay type: in vitro ADME; conditions: 30 pmol peptide in 85 µl PBS + 5 µl human EDTA-plasma, 37 °C, no linagliptin, MALDI-TOF-MS
T1 construct: Human plasma was used as source of endogenous DPP-IV; from tissue; host or cells: human EDTA-plasma from healthy adult donors
T1 sequence (P27487 39-766 limits assumed): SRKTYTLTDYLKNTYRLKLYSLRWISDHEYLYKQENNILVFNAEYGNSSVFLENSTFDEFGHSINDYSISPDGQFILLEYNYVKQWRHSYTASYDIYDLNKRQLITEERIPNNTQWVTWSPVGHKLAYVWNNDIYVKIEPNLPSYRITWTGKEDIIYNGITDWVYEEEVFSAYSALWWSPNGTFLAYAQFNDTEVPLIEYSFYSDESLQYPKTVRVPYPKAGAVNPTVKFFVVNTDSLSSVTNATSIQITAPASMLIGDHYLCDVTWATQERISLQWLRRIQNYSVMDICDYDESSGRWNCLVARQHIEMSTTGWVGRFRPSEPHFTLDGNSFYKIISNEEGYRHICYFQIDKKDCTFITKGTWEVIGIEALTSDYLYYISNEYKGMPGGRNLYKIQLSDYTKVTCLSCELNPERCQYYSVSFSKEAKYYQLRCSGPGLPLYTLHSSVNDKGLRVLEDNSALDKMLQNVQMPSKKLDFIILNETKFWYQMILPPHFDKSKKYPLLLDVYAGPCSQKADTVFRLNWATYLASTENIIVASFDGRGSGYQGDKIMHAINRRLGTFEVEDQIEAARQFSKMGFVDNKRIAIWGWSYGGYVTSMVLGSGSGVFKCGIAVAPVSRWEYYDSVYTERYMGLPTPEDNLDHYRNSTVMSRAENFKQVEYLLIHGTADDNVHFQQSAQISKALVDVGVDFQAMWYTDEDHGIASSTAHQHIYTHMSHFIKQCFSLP
Experimental: Human plasma was used as source of endogenous DPP-IV. Healthy adult individuals were enrolled after they provided written informed consent. […] Blood samples were collected from the cubital vein into blood collection tubes (EDTA-plasma). […] Plasma aliquots were transferred into 2 ml vials and stored − 80 °C. […] Parent NPY, PYY and corresponding fragments were determined by matrix-assisted laser desorption/ionization time-of-flight mass spectrometry (MALDI-TOF–MS) as described previously[34].

[7] = tested on: dipeptidyl peptidase IV (DPP-IV); conditions: in the circulation; inactivation by DPP-IV; cited from earlier work
From the text: Defective pancreatic β-cell function is a key pathological hallmark in type 2 diabetes (T2D). Because progressive loss of β-cell insulin secretory capacity is associated with worsening hyperglycemia, targeting intrinsic β-cell activity is considered essential in T2D management. A canonical role of the gut-derived incretin hormone glucagon-like peptide-1 (GLP-1) is potentiation of glucose-stimulated insulin secretion by activation of GLP-1 receptors in islet β-cells. The incretin effect is estimated to account for approximately 50–70% of total insulin secreted following oral glucose administrat ...

**Q.** With CC#CCn1c(N2CCC[C@@H](N)C2)nc2c1c(=O)n(Cc1nc(C)c3ccccc3n1)c(=O)n2C [linagliptin] as the molecule, how does the “terminal plasma insulin levels” value ([1]; day 14) read?
**A.** unaffected

**Q.** And the “plasma TNF-α concentration” value ([1]; terminal, 14 days)?
**A.** significantly reduced

**Q.** And the plasma pancreatic polypeptide ([1]; terminal, 14 days)?
**A.** unaffected

**Q.** What about the plasma resistin concentration ([1]; terminal, 14 days) of the same molecule?
**A.** significantly reduced

**Q.** What about the “plasma total PYY” value ([1]; terminal, 14 days) of the same molecule?
**A.** unaffected

**Q.** What about the food intake ([2]; 14 days) of the same molecule?
**A.** essentially unaffected

**Q.** And the “weight loss compared to vehicle controls” value ([2]; 14 days of treatment, p < 0.05)?
**A.** 2.8%

**Q.** What about the food intake [3] of the same molecule?
**A.** did not influence food intake

**Q.** What about the plasma linagliptin exposure [4] of the same molecule?
**A.** ~ 200 nM

**Q.** What about the oral glucose tolerance [5] of the same molecule?
**A.** significantly improved glucose tolerance

**Q.** For “PYY: synthetic human full-length PYY1–36 used as DPP-IV substrate [peptide YY]”, which “fraction of PYY processed” value ([6]; 18 h) is on record?
**A.** 30%-50%

**Q.** Which circulatory half-life [7] does the source give for glucagon-like peptide-1 [GLP-1_7–36] here?
**A.** approximately 1 min

**Q.** For neuropeptide Y [NPY], which “fraction of NPY processed by DPP-IV” value ([6]; 8 h) is on record?
**A.** approximately two-thirds
